The values below come from US20060172964A1, “Methods for reducing amyloid beta levels” (priority 2005, published 2006).

Assay type in all cases: cell-based, human
In data set [1] the test system is Aβ40. Nature of the data set: Sandwich ELISA of secreted Aβ in conditioned media of H4-APP-FL cells. Here is the method:
(§1) We employed naïve H4 human neuroglioma (H4) cells and H4 cells stably-transfected to express either the APP-FL, or APP-C99. Peptide APP-C99 is the product of β-secretase, which, therefore, contains α- and γ-, but not β-cleavage sites. This cell line provides a valid system to assess whether any effects on APP processing is dependent on γ-secretase-mediated APP processing and independent of β-secretase-mediated APP processing. All cell lines were cultured in DMEM (high glucose) containing 9% heat-inactivated fetal calf serum, 100 units/ml penicillin, 100 μg/ml streptomycin, and 2 mM L-glutamine. Stably transfected H4 cells were additionally supplemented with 200 μg/ml G418.
Small interfering RNA (siRNA) duplexes were designed and obtained from Dharmacon Research, Inc. (Lafayette, CO 80026) against human APBA1, the gene encoding X11α (5′-GGATGCTCAGCTGATTGCA-3′; SEQ ID NO:2), APBA2, the gene encoding X11β (5′-GGTGAAGCTCAACATTGTC-3′; SEQ ID NO:3). Scrambled siRNA (5′-[…]-3α; SEQ ID NO:4) (29) was used as the control siRNA. siRNAs were transfected into cells by using electroporation (AMAXA, Gaithersburg, Md.). […]
(§2) Following the treatment with saline, electroporation, control siRNA, APBA1 siRNA or APBA2 siRNA, conditioned media was collected, and secreted Aβ was measured by a Sandwich ELISA assay as described by Xie et al. (30). […] Plates were then developed with TMB reagent and well absorbance measured at 450 nm. Aβ levels in test samples were determined by comparison with signal from unconditioned media spiked with known quantities of Aβ40 and Aβ42.
Next, we measured Aβ levels in the conditioned media, 48 hours after treatment with control siRNA, APBA1 siRNA or γ-secretase inhibitor DAPT. Since Aβ42 was too low to be detected in many samples, we only present the changes in Aβ40 production from these experiments.
Next, we measured Aβ levels in the conditioned media 48 hours following treatments with control siRNA, APBA2 siRNA or γ-secretase inhibitor DAPT.
Background: An ELISA detects its analyte on a solid surface through an enzyme-linked reagent.

Data set [2] has as its system APP-FL, APP-C99 and APP-C83. The experiment in a line: Western blot analysis of APP processing in H4-APP-FL cells. As to conditions: for protein levels of APP-FL / increase in the ratio of APP-C99 to APP-FL / increase in the ratio of APP-C83 to APP-FL: siRNA 48 hours, DAPT 250 nM. The protocol: as §1
Small interfering RNA (siRNA) duplexes were designed and obtained from Dharmacon Research, Inc. (Lafayette, CO 80026) against human APBA1, the gene encoding X11α (5′-GGATGCTCAGCTGATTGCA-3′; SEQ ID NO:2), APBA2, the gene encoding X11β (5′-GGTGAAGCTCAACATTGTC-3′; SEQ ID NO:3). Scrambled siRNA (5′-[…]-3α; SEQ ID NO:4) (29) was used as the control siRNA. siRNAs were transfected into cells by using electroporation (AMAXA, Gaithersburg, Md.). We mixed 1 million cells, 100 μl AMAXA electroporation transfection solution and 10 μl 20 μM siRNA together, then we employed C-9 program in the AMAXA electroporation device for the cell transfection. The transfected cells then were placed in one of the six-well plate containing 1.5 ml cell culture media. The cells were harvested 48 hours after siRNA treatments. DAPT (250 nM, 18 hours treatment time), a γ-secretase inhibitor, was employed in the experiments as a positive control.
(§3) Cell pellets were detergent-extracted on ice using immunoprecipitation buffer (10 mM Tris-HCl, pH 7.4, 150 mM NaCl, 2 mM EDTA, 0.5% Nonidet P-40) plus protease inhibitors (1 μg/ml aprotinin, 1 μg/ml leupeptin, 1 μg/ml pepstatin A). The lysates were collected, centrifuged at 12,000 rpm for 10 min, and quantified for total proteins by the BCA protein assay kit (Pierce, Rockford, Ill.).
Western blot analysis was performed as described by Xie et al. (30). Briefly, 40 μg of total protein of each sample was subjected to SDS-polyacrylamide gel electrophoresis using 4-20% gradient Tris/glycine gels under reducing conditions (Invitrogen, Carlsbad, Calif.). Next, proteins were transferred to a polyvinylidene difluoride membrane (Bio-Rad, Hercules, Calif.) using a semi-dry electrotransfer system (Amersham Biosciences, San Francisco, Calif.). Nonspecific proteins were blocked using 5% non-fat dry milk in TBST for 1.5 h. Blots were then incubated with a primary antibody, followed by a secondary antibody (horseradish peroxidase-conjugated anti-rabbit antibody 1:10,000; Pierce, Rockford, Ill.). Blots were washed with 1× TBST for 30 min between steps. Antibody H-265 (1:200, Santa Cruz Biotechnology, Santa Cruz, Calif.) was used to recognize X11α (105 kDa), antibody N-20 (1:100, Santa Cruz Biotechnology, Santa Cruz, Calif.) was used to detect X11β (135 kDa). Antibody A8717 (1:1,000, Sigma, St. Louis, Mo.) was used to visualize APP-FL (110 kDa), […] in the Western blot analysis. The intensity of signals was analyzed using an image program (NIH Image 1.62). We quantified the Western blots as follows. We used the levels of β-actin to normalize the levels of X11α, X11β, APP-FL and APP-CTF (i.e., determining the ratio of X11α amount to β-actin amount) to control for loading differences in total protein amounts. We present the changes in the protein levels of X11α, X11β, APP-FL, APP-C99 and APP-C83 in the cells treated with APBA1 or APBA2 siRNA as the percentage of those in the cells treated with control siRNA.
We next assessed the effects of RNAi-mediated silencing of APBA1 on APP processing in H4-APP-FL cells by measuring protein levels of APP-FL, APP-C99 and APP-C83 following APBA1 siRNA treatment. […]
Background: A western blot detects proteins with antibodies after separation by electrophoresis.

The subject of data set [3] is Aβ40. Nature of the data set: Sandwich ELISA of secreted Aβ in conditioned media of H4-APP-C99 cells. The conditions noted are these: data not shown. The protocol: as §1, with “G418. […]” for “G418.”
as §2
We next measured Aβ levels in the conditioned media 48 hours after treatment with either control siRNA or APBA1 siRNA in the H4-APP-C99 cells. […]

For data set [4], the system named is APP-FL, APP-C99 and APP-C83. Nature of the data set: Western blot analysis of APP processing in H4-APP-C99 cells. The conditions noted are these: data not shown. Here is the method:
as §1, with “G418. […]” for “G418.”
as §3
Western blot analysis was performed as described by Xie et al. (30). […] The intensity of signals was analyzed using an image program (NIH Image 1.62). We quantified the Western blots as follows. […]
We next assessed the effects of RNAi-mediated silencing of APBA1 on processing of APP-C99. […]

In the case of `C[C@H](NC(=O)Cc1cc(F)cc(F)c1)C(=O)N[C@H](C(=O)OC(C)(C)C)c1ccccc1` [DAPT], the “Aβ levels (Aβ40) in conditioned media” value in data set [1] (FIG. 1E, 48 hours after treatment, control siRNA treatment 116 pg/ml) turned out to be 70 pg/mL. In data set [1] (FIG. 2E, 48 hours following treatment, control siRNA 109 pg/ml), the “Aβ production (Aβ40) in conditioned media” value turned out to be 48 pg/mL. Moreover, the “protein levels of APP-FL” value in data set [2] (APBA1 experiment (FIG. 1A), vs control siRNA) is recorded as “no significant differences”; in data set [2] (APBA2 experiment (FIG. 2A), vs control siRNA), “no significant difference”. Moreover, the “increase in the ratio of APP-C99 to APP-FL” value was 270% in data set [2] (APBA2 experiment, FIG. 2C, vs control treatment) and 310% in data set [2] (FIG. 1C, vs control siRNA, normalized to β-actin). The “increase in the ratio of APP-C83 to APP-FL” value was determined as 245% in data set [2] (APBA2 experiment, FIG. 2D, vs control treatment) and 250% in data set [2] (FIG. 1D, vs control siRNA, normalized to β-actin).
Regarding “control siRNA: Scrambled siRNA (5′-AAATGTGTGTACGTCTCCTCC-3; SEQ ID NO:4) used as the control siRNA (listed as DNA, chemistry not given here)”, the “effect on Aβ levels as compared to saline treatment” value in data set [3] and in data set [1] (data not shown) was “did not affect APP processing or alter Aβ levels” in each case. Moreover, the “effect on APP processing as compared to saline treatment” value in data set [4] and in data set [2] (data not shown) was “did not affect APP processing or alter Aβ levels” throughout.
